# Test results published in article PMC9921564, “Novel Indole-Containing Hybrids Derived from Millepachine: Synthesis, Biological Evaluation and Antitumor Mechanism Study” (Molecules, 2023).
# Tests used:
# Assay type in all cases: cell-based
# [1] = system: C42B/ENZR (C42b cell line resistant to Enzalutamide); test: CCK-8 cytotoxicity, C42B/ENZR; details: Homo sapiens; 48 h, CCK-8, Enzalutamide-resistant; read-out: IC50, Mean ± SE, C42B/ENZR
# Description: (§1) Besides the high cytotoxicity, drug resistance is the other limiting factor of chemotherapeutics. In this study, the cytotoxicities of compound 14b towards five kinds of drug-resistant cancer cell lines were also evaluated. Except three kinds of cell lines that are resistant to three drugs commonly used in clinical practice, two kinds of cell lines that are resistant to MTAs were also evaluated.
# (§2) A549 (non-small-cell-lung cancer cell line), Caski (human epithelial cervical cancer cell line), HepG2 (human liver carcinoma cell line), MCF-7 (human breast carcinoma cell line), C42B (human prostate cancer line C42B), L-02 (human normal hepatocytes), RWPE-1 (human prostate epithelial cells) and MCF-10A (human normal mammary epithelial cells) were obtained from National Collection of Authenticated Cell Cultures (Shanghai, China). […]
# (§3) After 24 h, the medium containing different concentrations of tested compounds were added for another 48 h. […] The optical density was recorded with a microplate reader at 570 nm (Thermo Scientific, Varioskan LUX). All the experiments were repeated independently at least three times and the IC50 values were calculated […]
# The fluorescence intensity enhancement (emission wavelength is 410 nm, excitation wavelength is 340 nm) was recorded every 60 s for 60 min in a multifunction microplate reader (Molecular Devices, Flex Station 3). […]
# [2] = system: A549 (human non-small-cell-lung cancer cell line); test: CCK-8 antiproliferative assay, A549; details: 48 h, read-out: IC50, Mean ± SE, A549
# [3] = system: L-02 (normal human hepatocytes); test: CCK-8 cytotoxicity, L-02 normal cells
# Description: A549 (non-small-cell-lung cancer cell line), Caski (human epithelial cervical cancer cell line), HepG2 (human liver carcinoma cell line), MCF-7 (human breast carcinoma cell line), C42B (human prostate cancer line C42B), L-02 (human normal hepatocytes), RWPE-1 (human prostate epithelial cells) and MCF-10A (human normal mammary epithelial cells) were obtained from National Collection of Authenticated Cell Cultures (Shanghai, China). A549/CDDP (A549 cell line resistant to cisplatin), C42B/ENZR (C42b cell line resistant to Enzalutamide), MCF-7/DOX (MCF-7 cell line resistant to doxorubicin), A2780/TAX (human ovarian cancer cell line A2780 resistant to taxol) and HCT-8/VCR (human ileocecum carcinoma cell lines HCT-8 resistant to vincristine) were kindly provided by Professor Junjian Wang and Professor Xingshu Li at Sun Yat-Sen University, China. […]
# as §3
# [4] = system: HCT-8 (human ileocecum carcinoma cell line); test: CCK-8 cytotoxicity, HCT-8; details: 48 h, read-out: IC50, Mean ± SE, HCT-8
# Description: as §1, §2, §3
compound,measurement,setting,value
"COc1ccc(C(=O)c2ccc3c(ccn3C)c2)c2c1C=CC(C)(C)O2 [compound 14b, (5-methoxy-2,2-dimethyl-2H-chromen-8-yl)(1-methyl-1H-indol-5-yl)methanone]",IC50,[1],42 ± 11 nM
same,IC50,[2],22 ± 2 nM
same,IC50,"[3]; Homo sapiens, Hepatocyte, 48 h, CCK-8, normal cells, read-out: IC50, Mean ± SE, L-02",1260 ± 214 nM
same,Selectivity Ratio,[3]; IC50 L-02 / IC50 Hep-G2,16.97
same,IC50,[4],89 ± 15 nM
